Test results published in ChEMBL document CHEMBL6078634, “HDAC8 as a target in drug discovery: Function, structure and design” (Eur J Med Chem, 2024).

Experiments:
Histone deacetylase 8 = target: T1, Histone deacetylase 8 (Homo sapiens, UniProt Q9BY41); test: Inhibition of HDAC8 (unknown origin) using biotinylated histone H3 KAc peptide (1 to 21 residues) as substrate by HTRF assay
T1 sequence (Q9BY41 whole entry): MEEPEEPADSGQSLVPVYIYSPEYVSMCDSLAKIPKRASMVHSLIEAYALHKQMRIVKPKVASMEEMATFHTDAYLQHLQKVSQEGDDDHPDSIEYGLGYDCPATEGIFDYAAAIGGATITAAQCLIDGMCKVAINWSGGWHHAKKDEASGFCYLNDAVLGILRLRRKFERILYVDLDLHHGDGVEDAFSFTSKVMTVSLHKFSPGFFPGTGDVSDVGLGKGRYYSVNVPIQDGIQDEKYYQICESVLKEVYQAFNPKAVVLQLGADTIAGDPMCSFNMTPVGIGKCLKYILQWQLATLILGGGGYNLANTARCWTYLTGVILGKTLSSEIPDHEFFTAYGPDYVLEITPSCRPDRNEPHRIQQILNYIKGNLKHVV

Histone deacetylase 2 = Histone deacetylase 2 (Homo sapiens, UniProt Q92769); test: Inhibition of HDAC2 (unknown origin)
Chain of Histone deacetylase 2 (Q92769 whole entry): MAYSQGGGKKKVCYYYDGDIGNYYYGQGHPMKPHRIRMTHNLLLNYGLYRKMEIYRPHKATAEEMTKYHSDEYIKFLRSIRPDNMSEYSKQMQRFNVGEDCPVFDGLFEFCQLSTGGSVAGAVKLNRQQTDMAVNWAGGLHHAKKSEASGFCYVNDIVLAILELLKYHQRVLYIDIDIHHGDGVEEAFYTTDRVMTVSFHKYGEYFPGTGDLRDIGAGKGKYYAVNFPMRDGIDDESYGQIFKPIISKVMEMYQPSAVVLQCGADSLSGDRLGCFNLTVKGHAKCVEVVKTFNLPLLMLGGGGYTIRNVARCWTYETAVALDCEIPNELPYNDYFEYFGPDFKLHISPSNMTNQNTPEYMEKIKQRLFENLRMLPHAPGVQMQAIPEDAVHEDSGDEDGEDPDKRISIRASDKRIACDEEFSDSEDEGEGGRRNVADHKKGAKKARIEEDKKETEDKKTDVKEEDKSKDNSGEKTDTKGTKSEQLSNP

[1] = target: von Hippel-Lindau disease tumor suppressor/Histone deacetylase 8 (+); test: PROTAC activity at VHL/HDAC8 in human Jurkat cells assessed as induction of HDAC8 degradation measured for 6 hrs by Western blot analysis
Histone deacetylase = test: Inhibition of HDAC in human HeLa nuclear extract using Boc-Lys(Ac)-AMC or Boc-Lys(Tfa)-AMC as substrate pre-incubated for 5 mins followed by substrate addition and measured after 30 mins by fluorescence assay; assay type: cell-free

Molecule O=c1cc(-c2ccccc2)oc2cc(O)cc(O)c12 [CHRYSIN] has an IC50 (Histone deacetylase 8) of 40.2 µM and an IC50 (Histone deacetylase 2) of 129 µM.
With O=C1CCC(N2C(=O)c3cccc(NCc4cn(CCOCCOc5ccc(Cn6ccc7ccc(C(=O)NO)cc76)cc5)nn4)c3C2=O)C(=O)N1 (stereo not given) the DC50 [1] was 0.58 µM.
COc1ccc(C(=O)NO)cc1OCc1ccc(C(=O)NCCCCCCCCNc2cccc3c2C(=O)N(C2CCC(=O)NC2=O)C3=O)cc1 (stereo not given) showed a DC50 [1] of 0.0018 µM.
COc1ccc(/C=C/C(=O)NO)c(-c2ccc(Br)cc2)c1 gave an IC50 (Histone deacetylase) of over 10 µM.
